Source: patent US11065214B1, “Combination therapies with disulfiram” (Spring Discovery, Inc., priority 2020, dated 2021)

How the values were obtained:
[1] = molecular target: transient receptor potential melastatin 8 (TRPM8) (Homo sapiens, UniProt Q7Z2W7); settings: increase of [Ca2+]i; cited from earlier work
[2] = test system: Spodoptera litum larvae; settings: cited from earlier work
[3] = test system: most gram-positive and some gram-negative bacteria; settings: cited from earlier work
[4] = test system: SAMP8 mice; settings: intragastric, 4-month-old SAMP8 mice, 2 months; cited from earlier work
[5] = molecular target: CYP2C19 (Homo sapiens, UniProt P33261); settings: cited from earlier work
[6] = molecular target: CYP2C8 (Homo sapiens, UniProt P10632); settings: cited from earlier work
[7] = molecular target: CYP2C9 (Homo sapiens, UniProt P11712); settings: cited from earlier work
[8] = test system: severe sepsis; settings: patients with severe sepsis, placebo cohort 24%; cited from earlier work
[9] = test system: brain blood flow; settings: 450 mg/kg during a 15-minute period, after simvastatin 2 mg/kg subcutaneously daily for 14 days, SV-129 mice; cited from earlier work
[10] = 510 mg/day, patients, cited from earlier work
[11] = molecular target: N-methyl-D-aspartate receptors (NMDARs); settings: glycine-binding site; read-out: KB, competitive antagonist of NMDARs; cited from earlier work
[12] = molecular target: SIRT1 (Homo sapiens, UniProt Q96EB6); settings: cited from earlier work
[13] = static toxicity tests; cited from earlier work
[14] = test system: mouse skin carcinogenesis; settings: cited from earlier work
[15] = test system: carrageenan; settings: 25, 50 or 100 mg/kg, i.p., immediately and 2 h after carrageenan; cited from earlier work
[16] = test system: fever induced by lipopolysaccharide (LPS); settings: 50 or 100 mg/kg, i.p., 0 and 2 h; rats; cited from earlier work
[17] = molecular target: cyclo-oxygenase-2 (COX-2) (Homo sapiens, UniProt P35354); settings: independently of NF-κB activation; cited from earlier work
[18] = test system: fibroblasts, peripheral blood mononuclear cells (PBMCs), myoblasts; experiment: Reversal of aging (predicted age) in cultured young/old cells contacted with disulfiram plus potentiating ingredients; type: cell-based; settings: concentrations 0.000005 to 80 μM; potentiating ingredient as high as 25 μM
[19] = test system: THP1 HMGB1 Lucia cells; experiment: Pyroptosis inhibition luciferase assay, LPS + nigericin, HMGB1 reporter (QUANTI-Luc); type: cell-based; settings: compound alone; 1 μg/ml LPS 3 h, then 10 μM nigericin 3 h
[20] = test system: neuroblastoma cells; settings: cited from earlier work
[21] = test system: influenza virus H1N1; settings: cited from earlier work
[22] = test system: ProDH (proline dehydrogenase); settings: competitive; plants; cited from earlier work
[23] = rats, doses up to 2000 mg/kg bw; cited from earlier work
[24] = doses up to 750 mg/kg bw; cited from earlier work

Sequence of CYP2C9 (P11712 whole entry, species assumed): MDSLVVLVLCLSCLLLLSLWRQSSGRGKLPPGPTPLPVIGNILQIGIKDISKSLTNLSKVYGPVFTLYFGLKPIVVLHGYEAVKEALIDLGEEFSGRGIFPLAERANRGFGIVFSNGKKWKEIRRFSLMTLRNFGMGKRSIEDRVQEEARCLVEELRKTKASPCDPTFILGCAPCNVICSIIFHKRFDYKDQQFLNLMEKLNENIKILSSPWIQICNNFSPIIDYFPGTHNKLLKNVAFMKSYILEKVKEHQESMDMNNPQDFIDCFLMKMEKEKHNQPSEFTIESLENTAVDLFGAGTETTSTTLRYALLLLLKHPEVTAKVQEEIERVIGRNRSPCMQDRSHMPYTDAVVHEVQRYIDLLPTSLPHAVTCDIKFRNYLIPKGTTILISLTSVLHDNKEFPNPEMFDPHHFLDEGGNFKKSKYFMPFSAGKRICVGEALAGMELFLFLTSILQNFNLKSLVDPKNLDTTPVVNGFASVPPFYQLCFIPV
Sequence of cyclo-oxygenase-2 (COX-2) (P35354 18-604, species assumed): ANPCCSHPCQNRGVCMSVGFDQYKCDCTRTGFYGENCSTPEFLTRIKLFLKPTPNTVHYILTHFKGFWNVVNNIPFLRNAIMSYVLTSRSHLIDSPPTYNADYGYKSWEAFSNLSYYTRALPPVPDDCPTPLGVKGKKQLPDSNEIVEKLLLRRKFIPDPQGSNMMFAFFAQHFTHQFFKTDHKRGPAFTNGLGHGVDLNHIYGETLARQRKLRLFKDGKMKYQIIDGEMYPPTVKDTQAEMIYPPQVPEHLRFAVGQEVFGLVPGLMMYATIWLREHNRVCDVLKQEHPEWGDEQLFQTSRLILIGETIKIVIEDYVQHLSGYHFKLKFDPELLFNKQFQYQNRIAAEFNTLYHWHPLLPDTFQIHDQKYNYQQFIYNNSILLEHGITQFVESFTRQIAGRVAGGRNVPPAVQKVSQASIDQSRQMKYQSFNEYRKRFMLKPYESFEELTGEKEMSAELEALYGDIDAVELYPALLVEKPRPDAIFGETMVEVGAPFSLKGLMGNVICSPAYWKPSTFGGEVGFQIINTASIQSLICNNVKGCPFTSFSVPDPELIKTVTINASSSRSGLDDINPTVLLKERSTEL
Sequence of transient receptor potential melastatin 8 (TRPM8) (Q7Z2W7 whole entry, species assumed): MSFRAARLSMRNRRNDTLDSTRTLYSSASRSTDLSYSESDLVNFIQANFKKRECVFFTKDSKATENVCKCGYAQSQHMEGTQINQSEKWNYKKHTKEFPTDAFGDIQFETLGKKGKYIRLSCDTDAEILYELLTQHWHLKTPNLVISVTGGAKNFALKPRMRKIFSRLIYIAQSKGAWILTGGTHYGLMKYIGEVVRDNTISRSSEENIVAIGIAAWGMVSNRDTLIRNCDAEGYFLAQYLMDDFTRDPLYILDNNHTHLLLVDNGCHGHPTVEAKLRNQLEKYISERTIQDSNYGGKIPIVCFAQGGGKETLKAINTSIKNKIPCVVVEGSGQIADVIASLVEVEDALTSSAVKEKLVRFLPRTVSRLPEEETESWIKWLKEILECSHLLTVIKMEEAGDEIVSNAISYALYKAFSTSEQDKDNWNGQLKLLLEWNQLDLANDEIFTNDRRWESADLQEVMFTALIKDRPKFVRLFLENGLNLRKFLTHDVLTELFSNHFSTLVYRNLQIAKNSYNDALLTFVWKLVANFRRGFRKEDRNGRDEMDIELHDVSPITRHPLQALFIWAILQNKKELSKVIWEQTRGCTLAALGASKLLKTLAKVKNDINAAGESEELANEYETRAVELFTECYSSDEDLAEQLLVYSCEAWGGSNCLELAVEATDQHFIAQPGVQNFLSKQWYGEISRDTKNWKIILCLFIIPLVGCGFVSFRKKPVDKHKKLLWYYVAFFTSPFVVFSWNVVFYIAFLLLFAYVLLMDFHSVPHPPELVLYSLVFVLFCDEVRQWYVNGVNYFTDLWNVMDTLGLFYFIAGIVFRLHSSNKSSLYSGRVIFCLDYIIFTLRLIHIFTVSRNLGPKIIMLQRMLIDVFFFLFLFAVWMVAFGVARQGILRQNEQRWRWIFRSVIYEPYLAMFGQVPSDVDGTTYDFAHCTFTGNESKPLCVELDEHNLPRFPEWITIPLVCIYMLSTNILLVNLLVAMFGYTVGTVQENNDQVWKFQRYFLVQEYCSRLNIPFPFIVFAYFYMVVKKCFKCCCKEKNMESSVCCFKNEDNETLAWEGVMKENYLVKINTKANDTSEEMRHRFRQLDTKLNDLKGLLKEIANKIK
Sequence of CYP2C19 (P33261 whole entry, species assumed): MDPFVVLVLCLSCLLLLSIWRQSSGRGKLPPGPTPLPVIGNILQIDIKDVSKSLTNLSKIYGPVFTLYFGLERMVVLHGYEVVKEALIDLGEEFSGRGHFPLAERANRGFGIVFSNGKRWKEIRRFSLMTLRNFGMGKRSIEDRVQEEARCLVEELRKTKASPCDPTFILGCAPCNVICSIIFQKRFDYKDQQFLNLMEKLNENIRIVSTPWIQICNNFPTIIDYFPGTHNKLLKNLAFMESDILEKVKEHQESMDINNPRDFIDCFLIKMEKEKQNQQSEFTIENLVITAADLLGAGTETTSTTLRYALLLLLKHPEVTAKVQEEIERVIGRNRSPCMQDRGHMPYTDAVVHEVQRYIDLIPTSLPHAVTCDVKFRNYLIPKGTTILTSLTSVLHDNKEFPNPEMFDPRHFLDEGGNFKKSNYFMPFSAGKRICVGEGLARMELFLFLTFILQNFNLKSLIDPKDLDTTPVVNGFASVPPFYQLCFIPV
Sequence of CYP2C8 (P10632 whole entry): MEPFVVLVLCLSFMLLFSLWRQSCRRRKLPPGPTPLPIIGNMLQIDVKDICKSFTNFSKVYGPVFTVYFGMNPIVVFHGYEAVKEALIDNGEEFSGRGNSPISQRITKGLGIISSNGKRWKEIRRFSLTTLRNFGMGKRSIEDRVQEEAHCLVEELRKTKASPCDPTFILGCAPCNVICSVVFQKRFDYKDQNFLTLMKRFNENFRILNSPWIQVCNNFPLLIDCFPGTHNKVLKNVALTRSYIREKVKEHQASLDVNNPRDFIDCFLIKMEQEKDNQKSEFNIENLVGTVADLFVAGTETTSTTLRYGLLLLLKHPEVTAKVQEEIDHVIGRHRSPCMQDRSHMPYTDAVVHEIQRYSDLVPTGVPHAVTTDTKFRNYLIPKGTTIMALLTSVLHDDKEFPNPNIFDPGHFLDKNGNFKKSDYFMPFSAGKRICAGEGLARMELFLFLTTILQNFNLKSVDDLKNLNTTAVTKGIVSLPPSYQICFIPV
Sequence of SIRT1 (Q96EB6 whole entry, species assumed): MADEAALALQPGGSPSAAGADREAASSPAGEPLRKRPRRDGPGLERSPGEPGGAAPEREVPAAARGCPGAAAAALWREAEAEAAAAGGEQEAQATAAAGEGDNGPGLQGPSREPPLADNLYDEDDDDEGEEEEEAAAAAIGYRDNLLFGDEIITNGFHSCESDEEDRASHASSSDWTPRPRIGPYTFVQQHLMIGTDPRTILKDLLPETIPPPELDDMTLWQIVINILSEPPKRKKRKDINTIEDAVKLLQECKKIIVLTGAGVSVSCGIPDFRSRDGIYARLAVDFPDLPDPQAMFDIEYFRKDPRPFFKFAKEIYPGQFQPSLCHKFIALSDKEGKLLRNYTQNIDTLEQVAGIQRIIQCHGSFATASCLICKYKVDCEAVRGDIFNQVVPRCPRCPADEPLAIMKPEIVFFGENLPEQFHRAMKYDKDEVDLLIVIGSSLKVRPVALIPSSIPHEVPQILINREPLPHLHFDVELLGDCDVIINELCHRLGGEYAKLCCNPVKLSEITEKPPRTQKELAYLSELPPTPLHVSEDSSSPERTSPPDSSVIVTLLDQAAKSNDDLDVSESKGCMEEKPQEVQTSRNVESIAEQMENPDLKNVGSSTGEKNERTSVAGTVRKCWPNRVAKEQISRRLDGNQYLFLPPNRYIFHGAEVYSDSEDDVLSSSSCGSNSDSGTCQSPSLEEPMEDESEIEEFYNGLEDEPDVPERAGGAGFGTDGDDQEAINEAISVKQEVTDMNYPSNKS

CC1CCC(C(C)C)C(O)C1 (single isomer, unassigned; (-)) [(−)-Menthol]
binding and activation of TRPM8 [1]: (−)-Menthol is a key component of peppermint oil that binds and activates

CCCC=C1OC(=O)c2ccccc21 [3-Butylidenephthalide]
LC50, larvicidal activity [2]: activity (LC50 of 1.56 mg/g for Spodoptera litum larvae).

O=C(O)c1ccc(O)cc1 [4-Hydroxybenzoic acid]
IC50, inhibition of most gram-positive and some gram-negative bacteria [3]: IC50 of 160 μg/mL.

CCCCC1OC(=O)c2ccccc21 (centres unmarked) [Butylphthalide]
spatial learning and memory ability [4]: 2 months significantly improved spatial learning and memory ability.

C[C@@H]1CC[C@H]2C(C)(C)[C@H]3C[C@@]12CC[C@@]3(C)O [Cedrol]
inhibitory effect on CYP2C19 [5]: weak
inhibitory effect on CYP2C8 [6]: weak
inhibitory effect on CYP2C9 [7]: weak

N=C(N)NCCC[C@H](N)C(=O)O [L-Arginine]
Resolution of shock at 72 hours, share of patients [8]: 72 hours is achieved by 40% and 24% of the patients in the L-Arginine
hyperemia [9]: minute period) amplifies and sustains the hyperemia (38%) and increases

C[N+](C)(C)C[C@H](O)CC(=O)[O-] [L-Carnitine]
total time for dozing off during the daytime ([10]; versus placebo-treated periods): L-carnitine (Levocarnitine) treatment significantly improved the total
serum acylcarnitine levels [10]: L-carnitine (Levocarnitine) efficiently increased serum acylcarnitine
serum triglycerides concentration [10]: levels, and reduced serum triglycerides concentration.

N[C@@H](Cc1ccccc1)C(=O)O [L-Phenylalanine]
Kb [11]: 573 µM

NC(=O)c1cccnc1 [Nicotinamide]
inhibition of SIRT1 [12]: reactions. Nicotinamide is an inhibitor of SIRT1.

CCCCCCCCC(=O)NCc1ccc(O)c(OC)c1 [Nonivamide]
4d-EC50 [13]: 5.1 mg/L in static toxicity tests.

CCCCCCCC(=O)CCc1ccc(O)c(OC)c1 [Paradol]
inhibition of tumor promotion [14]: Zingiberaceae plants. Paradol is an effective inhibitor of tumor promotion

Cc1cc2nc3c(=O)[nH]c(=O)nc-3n(C[C@H](O)[C@H](O)[C@H](O)CO)c2cc1C [Riboflavin]
antiedema and antinociceptive effects [15]: induced antiedema and antinociceptive effects. The antinociceptive effect
effect on LPS-induced fever [16]: inhibited the fever induced by lipopolysaccharide (LPS) in rats.

O=C(O)c1ccccc1O [Salicylic acid]
inhibition of COX-2 activity [17]: Salicylic acid (2-Hydroxybenzoic acid) inhibits cyclo-oxygenase-2

CC(C)(C)c1cc(O)ccc1O [TBHQ, tert-Butylhydroquinone]
ability in combination with disulfiram to reverse aging in the cells [18]: identified as a potentiating ingredient
pyroptosis inhibition (HMGB1 luciferase reporter in supernatant) [19]: no effect on pyroptosis inhibition or a clear IC50

COc1cc(CCC(C)=O)ccc1O [Zingerone]
growth of neuroblastoma cells [20]: agent, and inhibits the growth of neuroblastoma cells.

OC[C@H]1O[C@@H]2O[C@H]3[C@H](O)[C@@H](O)[C@@H](O[C@H]4[C@H](O)[C@@H](O)[C@@H](O[C@H]5[C@H](O)[C@@H](O)[C@@H](O[C@H]6[C@H](O)[C@@H](O)[C@@H](O[C@H]7[C@H](O)[C@@H](O)[C@@H](O[C@H]8[C@H](O)[C@@H](O)[C@@H](O[C@H]1[C@H](O)[C@H]2O)O[C@@H]8CO)O[C@@H]7CO)O[C@@H]6CO)O[C@@H]5CO)O[C@@H]4CO)O[C@@H]3CO [β-Cyclodextrin]
anti-influenza virus activity [21]: Cyclodextrin has anti-influenza virus H1N1 activities.

D-(-)-Lactic acid
inhibition of ProDH [22]: inhibitor of ProDH (proline dehydrogenase) in plants.

Rebaudioside A
genotoxic effects, unscheduled DNA synthesis test [23]: rebaudioside A do not cause any genotoxic effects at any of the doses
genotoxic effects, mouse micronucleus test [24]: rebaudioside A do not cause any genotoxic effects at any of the doses
